Reference: patent publication US20110130380A1, “Heteroaryl Kinase Inhibitors” (priority 2009, published 2011)

What follows are molecules tested against Cdk9/cyclinT1 (Homo sapiens, UniProt P50750) (assay: Cdk9/cyclinT1 IMAP Protocol (fluorescence polarization kinase assay)). Settings: Cdk9_cyclinT1_IC50, Table V; generated using one of the two Cdk9/cyclinT1 assays (IMAP or Alpha Screen), not stated which; ATP 6 uM.
Sequence of Cdk9/cyclinT1 (P50750 whole entry): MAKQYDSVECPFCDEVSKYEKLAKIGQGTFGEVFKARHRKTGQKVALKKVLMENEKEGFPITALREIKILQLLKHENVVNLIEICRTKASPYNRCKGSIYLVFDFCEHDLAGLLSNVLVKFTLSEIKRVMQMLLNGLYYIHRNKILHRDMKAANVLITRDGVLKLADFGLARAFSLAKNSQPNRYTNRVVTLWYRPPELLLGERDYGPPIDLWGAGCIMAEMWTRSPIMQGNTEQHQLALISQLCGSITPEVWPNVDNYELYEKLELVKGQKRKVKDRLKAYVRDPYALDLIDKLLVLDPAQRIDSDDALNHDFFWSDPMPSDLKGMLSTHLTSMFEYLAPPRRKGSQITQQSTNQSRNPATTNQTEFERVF
Sequence of Cdk9/cyclinT1 (O60563 whole entry partner): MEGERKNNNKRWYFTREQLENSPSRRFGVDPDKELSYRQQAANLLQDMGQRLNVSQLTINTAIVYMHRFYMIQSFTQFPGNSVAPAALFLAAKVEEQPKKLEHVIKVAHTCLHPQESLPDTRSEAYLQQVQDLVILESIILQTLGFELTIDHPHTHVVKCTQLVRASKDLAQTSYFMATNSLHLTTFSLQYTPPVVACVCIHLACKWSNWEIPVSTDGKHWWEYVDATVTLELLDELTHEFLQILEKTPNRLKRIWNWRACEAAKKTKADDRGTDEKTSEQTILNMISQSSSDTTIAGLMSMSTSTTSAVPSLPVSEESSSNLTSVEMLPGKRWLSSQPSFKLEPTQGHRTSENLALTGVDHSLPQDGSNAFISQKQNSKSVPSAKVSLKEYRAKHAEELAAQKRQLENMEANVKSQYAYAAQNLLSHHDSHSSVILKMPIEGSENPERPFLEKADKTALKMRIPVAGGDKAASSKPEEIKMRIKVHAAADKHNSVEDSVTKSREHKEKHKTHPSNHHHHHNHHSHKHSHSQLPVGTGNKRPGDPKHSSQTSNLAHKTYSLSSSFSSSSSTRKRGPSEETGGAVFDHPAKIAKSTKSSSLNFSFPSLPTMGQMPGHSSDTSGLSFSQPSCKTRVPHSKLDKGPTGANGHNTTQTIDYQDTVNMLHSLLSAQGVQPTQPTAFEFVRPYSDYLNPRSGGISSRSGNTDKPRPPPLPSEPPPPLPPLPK

| SMILES | IC50 [nM] |
| --- | --- |
| O=C(Nc1cc(-c2cccc(N3CCC(c4ccccc4)CC3)n2)c(Cl)cn1)[C@@H]1CCCNC1 [Example 42, (R)-Piperidine-3-carboxylic acid (5″- chloro-4-phenyl-3,4,5,6-tetrahydro-2H-[1,2′;6′,4″]terpyridin-2″- yl)-amide] | 42 |
| C[C@@H]1CC[C@@H](C(=O)Nc2cc(-c3cccc(NC[C@H]4CCOC(C)(C)C4)n3)c(Cl)cn2)CN1 (mixture of isomers) [Example 227, (3R,6R)-/(3S,6S)-6-Methyl-piperidine-3-carboxylic acid {5′-chloro-6-[((S)-2,2-dimethyl-tetrahydro-pyran-4-ylmethyl)-amino]-[2,4′]bipyridinyl-2′-yl}-amide] | 1 |
| C[C@H](Nc1cccc(-c2cc(NC(=O)[C@@H]3CCCNC3)ncc2Cl)n1)C1CCOCC1 [Example 136, (R)-Piperidine-3-carboxylic acid {5′-chloro-6-[(S)-1-(tetrahydro-pyran-4-yl)-ethylamino]-[2,4′]bipyridinyl-2′-yl}-amide] | 13 |
| CCS(=O)(=O)N[C@@H]1CC[C@H](C(=O)Nc2cc(-c3nc(NCC4CCOCC4)ccc3Cl)c(Cl)cn2)C1 [Example 113, (1S,3R)-3-Ethanesulfonylamino-cyclopentanecarboxylic acid {3,5′-dichloro-6-[(tetrahydro-pyran-4-ylmethyl)-amino]-[2,4′]bipyridinyl-2′-yl}-amide] | < 8 |
| O=C(Nc1cc(-c2cccc(NCc3cccnc3)n2)c(Cl)cn1)[C@@H]1CCCNC1 [Example 40, (R)-Piperidine-3-carboxylic acid {5′-chloro-6-[(pyridin-3-ylmethyl)-amino]-[2,4′]bipyridinyl-2′-yl}-amide] | < 8 |
| COC[C@@H]1CC[C@@H](C(=O)Nc2cc(-c3cccc(NCC4CCOCC4)n3)c(Cl)cn2)CN1 (single isomer, unassigned) [Example 235] | 2 |
| COC[C@@H]1CC[C@@H](C(=O)Nc2cc(-c3cccc(NCC4CCOCC4)n3)c(Cl)cn2)CN1 (racemic) [Example 221, (3R,6S)-/(3S,6R)-6-Methoxymethyl-piperidine-3-carboxylic acid {5′-chloro-6-[(tetrahydro-pyran-4-ylmethyl)-amino]-[2,4′]bipyridinyl-2′-yl}-amide] | 3 |
| COCCOC[C@@H]1C[C@@H](C(=O)Nc2cc(-c3cccc(NCC4(C)CCOCC4)n3)c(Cl)cn2)CN1 [Example 258, (3R,5S)-5-(2-Methoxy-ethoxymethyl)-pyrrolidine-3-carboxylic acid {5′-chloro-6-[(4-methyl-tetrahydro-pyran-4-ylmethyl)-amino]-[2,4′]bipyridinyl-2′-yl}-amide] | 2 |

Results, then the molecule that gave them:

| IC50 [nM] | SMILES |
| --- | --- |
| 1 | CC1(C)CO[C@H](CNc2nc(-c3cc(NC(=O)[C@@H]4CCCNC4)ncc3Cl)ccc2F)CO1 (single isomer, unassigned) [Example 265] |
| 1 | O=C(Nc1cc(-c2ccc(F)c(NCC3CCOCC3)n2)c(Cl)cn1)[C@@H]1CCNC1 [Example 143, (R)-Pyrrolidine-3-carboxylic acid {5′-chloro-5-fluoro-6-[(tetrahydro-pyran-4-ylmethyl)-amino]-[2,4′]bipyridinyl-2′-yl}-amide] |
| 1 | CC1(C)CO[C@@H](CNc2cccc(-c3cc(NC(=O)[C@@H]4CCCNC4)ncc3Cl)n2)CO1 (single isomer, unassigned) [Example 231] |
| < 8 | CC1(C)CC(CNc2ccc(Cl)c(-c3cc(NC(=O)[C@@H]4CCCNC4)ncc3Cl)n2)CCO1 (stereo partly drawn) [Example 132, (R)-Piperidine-3-carboxylic acid {3,5′-dichloro-6-[(2,2-dimethyl-tetrahydro-pyran-4-ylmethyl)-amino]-[2,4′]bipyridinyl-2′-yl}-amide] |
| 1 | COC1(CNc2nc(-c3cc(NC(=O)C4CCC(C)NC4)ncc3Cl)ccc2F)CCOCC1 (stereo not shown) [Example 261, 6-Methyl-piperidine-3-carboxylic acid {5′-chloro-5-fluoro-6-[(4-methoxy-tetrahydro-pyran-4-ylmethyl)-amino]-[2,4′]bipyridinyl-2′-yl}-amide] |
